# Measured values taken from ChEMBL document CHEMBL1131856, “Wasalexins A and B, new phytoalexins from wasabi: isolation, synthesis, and antifungal activity” (1999).
# Assays:
# [1] = tested on: Plenodomus lingam; test: Antifungal activity against P. Lingam by spore germination assay after 24 hours; range is 40-50%; assay type: functional
# [2] = tested on: Plenodomus lingam; test: Antifungal activity against P. Lingam by spore germination assay after 24 hours; No detectable inhibitory activity; assay type: functional, organism-based
Structure (SMILES),Inhibition [1] [%],Activity [2]
CON1C(=O)/C(=C/N=C(SC)SC)c2ccccc21,50,–
COC(=O)c1cn(OC)c2ccccc12,50,–
CSC(=N/C=C1/C(=O)N(C)c2ccccc21)SC,–,No detectable inhibitory activity
